Values of other authors, collected in patent US20050147632A1, “Virally infected plants as a source of insect reppellants/attractents” (priority 2002, published 2005).

Tested on: neighboring plants
Conditions: Shulaev et al., Nature 385: 718-721, 1997

Compound: COC(=O)c1ccccc1O [methyl salicylate]
- induction of plant pathogen resistance: capable of inducing plant pathogen resistance in neighboring plants
